The subject of data set [1] is Hsp72. Nature of the data set: Heat stress induced hsp72 expression in rat spleen explant. The data set is classed as cell-based. The settings on record: 10^−5 M, 15 min. before 43° C. 30 min. As for the experimental part: These experiments were performed on rat spleen and testicular tissue explants applying heat stress after treatment with the experimental compounds. Experiments on spleen suspension were carried out as follows.
Spleens of CFY rats weighing 200 g were removed aseptically, and were homogenized in 10% fetal bovine serum containing MEM culture medium. The concentration of the cell suspension was adjusted to 50-100 mg/5 ml.
Five ml cell suspension was given into each of the culture dishes of 6 cm of diameter and the explants were incubated for one hour in a 5% CO2 containing humidified air at 37° C. then cultures were treated with the 10^−5 M concentration of the test compounds. After further 15 min. incubation at 37° C. the cultures were exposed to heat shock at 43° C. for 30 min. in an incubator. The amount of the induced hsp72 was measured after a further 6 hours incubation at 37° C.

Data set [2] has as its system Hsp72. Nature of the data set: Heat stress induced hsp72 expression in rat testicular explant. The data set is classed as cell-based. To be noted: 10^−5 M, 15 min. before 43° C. 30 min. Here is the method: Testis of CFY rats weighing of 200 g were removed in sterile conditions and the released testicular tubuli were suspended in 10% fetal bovine serum containing MEM culture medium in that way that five ml suspension contained 50-100 mg tissue. The explants were incubated in 5% CO2 containing humidified air at 37° C. for one hour, then the cultures were treated with 10^−5 M concentration of the tested compounds. After a further incubation for 15 min. at 37° C., explants were exposed to heat shock at 43° C. for 30 min. The amount of the induced hsp72 was measured after a further 6 hours incubation at 37° C.

Data set [3] concerns HSP72. Briefly: Heat stress induced HSP72 production in 3T3 cells. The data set is classed as cell-based, mouse. The settings on record: 10^−5 M. As for the experimental part: (§1) From the applied cells the 3T3 and L-929 mouse fibroblasts were cultured in MEM medium and grew in monolayer, the U-937 human leukemia cells were maintained in RPMI-1640 medium, in suspension culture, while the HeLa human epithelial cells were cultured in DMEM medium and in monolayer form. Cell cultures were maintained as described in example 6.2 (a) with the difference that cells were cultured in the above mentioned culture mediums.
(§2) Experiments were carried out applying stress before and after the drug treatment. Stress was provoked by heat, by chemical agent, HgCl2 treatment. The test compounds were applied in the treatments at the 10^−5 M concentration.
The experiments on 3T3 cell applying heat stress were performed as described in the 6.2. (c) point of example 6, with the difference that stress was induced by a 30 min. exposure at 43° C. temperature and treatment with the test compounds was performed 15 min. before or 100 min. after the heat stress.
Immunodetection was carried out using the HSP72 specific SPA 810 (StressGene) primary and the horse-radish peroxidase conjugated A9044 (Sigma) secondary antibodies. Densitometric evaluation was performed by a LKB Ultrascan XL densitometer.

For another data set, the system named is Male Sprague-Dawley rats. Briefly: Protection against cardiac ischaemia: survival after 5 minutes coronary occlusion and reperfusion. The data set is classed as in vivo, rat. To be noted: i.v. 1 mg/kgbw, 5 min. before the occlusion; non-treated control 10. Here is the method: Male Sprague-Dawley rats (380-450 g b.w.) were anaesthetized with sodiumpentobarbital (Nembutal 60 mg/kg body weight, i.p.) and artificially ventilated with room air (2 ml/100 g; 54 stroke/minutes) via tracheotomy. The right carotid artery was catheterized and connected to a pressure transducer (BPR-01, Stoelting) for the measurement of systemic arterial blood pressure (BP) by means of a preamplifier (Hg-02, Experimetria). Hydroxylamine derivatives disclosed in Example 5 were administered via the venous cannule to jugular vein (i.v.) and orally (p.o.). Heart rate (HR) was measured by a cardiotachometer (HR-01, Experimetria). The electrocardiogram (ECG standard lead II) was recorded on a devices recorder (MR-12, Medicor) by means of subcutaneous steel needles electrodes. The chest was opened by a left thoracotomy and the heart was exteriorized by a gentle pressure on the right side of the rib cage. A 4-0 silk suture was quickly placed under the main left coronary artery as described by Selye et al. (1960). The heart was carefully replaced in the chest and the animal left to recover. Rectal temperature was monitored and kept constant at 37 C. The experimental protocol was initiated with a 15 minute stabilization period during which the observation of a sustained blood pressure less than 70 mmHg and or the occurrence of anhythmia led to exclusion. Myocardial ischemia was induced with coronary occlusion for 5 minutes and reperfusion allowed for 10 minutes.
During the entire experiment BP, HR and ECG were continuously registered on a multiscriptor (R61-6CH, Medicor). Hydroxylamine derivatives, the tautomeric forms of which are represented by structures (I) and (II), were administered 5 to 60 minutes before the occlusion after i.v. and p.o. treatment, respectively. […]
The mean duration of ventricular tachycardia (VT) and/or ventricular fibrillation (VF) during the first 3 minutes of reperfusion was analyzed by one-way analysis of variance. The incidence of VF was analyzed using a chi-square test. […] The haemodynamic variables were analyzed using Student's “t”-test. The critical level of significance was set at p<0.05. All results were expressed as a means±S.E.M. Drugs were administered i.v. in a dose of 1 mg/kgbw 5 min. before the occlusion.
The hydroxylamine derivatives that are found to be particularly advantageous for protecting an animal against ischemic/reperfusion injury are listed below. Survival (%) indicates the percent of animals survived the effects of 5 minutes coronary occlusion.

The test system of data set [4] is Rats with genetic hypertension. Nature of the data set: Morphological examination of the thoracic aorta of rats with genetic hypertension. The data set is classed as in vivo, rat. The settings on record: daily oral treatment (20 mg/kg 8 days or 5 mg/kg 20 days). As for the experimental part: Rats with genetic hypertension were divided into four groups of four. The groups were treated daily, orally, the first group with physiological saline, the second group with N-[2-hydroxy-3-(1-piperidinyl)]-propoxy-3-pyridine-carboximidoyl-chloride maleate (20 mg/kg) for 8 days, the third group with N-[2-hydroxy-3-(1-piperidinyl)-propoxy]-benzimidoyl-chloride monohydrochloride (5 mg/kg) for 20 days and the fourth group with N-[2-hydroxy-3-(1-piperidinyl)-propoxy]-2-thiophenecarboximidoyl-chloride monohydrochloride (5 mg/kg) for 20 days. Animals were sacrificed, aortas were isolated, snap frozen in liquid nitrogen and were stored at −70° C. till they were used.
The examination was performed according to published methods (Br. J. of Pharmacol., 1995; 115, […]). A 1 mm^2 area of the thoracic aorta was excised and fixed in 2.5% glutaral-dehyde at room temperature. Post fixation was performed in 1% osmium-tetroxide for one hour. The tissue was dehydrated in ethanol and was embedded in Durcupan ACM. Pictures were taken by a Hitachi 7100 electronmicroscope and were evaluated qualitatively.

Data set [5] deals with hsp72. Nature of the data set: HgCl2 stress induced hsp72 level in HeLa cells. The data set is classed as cell-based, human. The settings on record: 10^−5 M, 0.5 μg/ml HgCl2, 6 hours. Here is the method:
as §1, §2
These experiments were performed on HeLa, human epithelial and U-937, human leukemia cells using HgCl2 to induce stress response. Drug treatment was carried out before cells were exposed to the stress. Test cultures were prepared and treatments were performed as in the experiments with the 3T3 cells. After the drug treatment cells were incubated at 37° C. for 15 min. than all the cultures except two (non stressed control) were exposed to 0.5 μg/ml concentration of HgCl2 and the incubation was followed. The induced amount of hsp72 was measured 6 hours after the exposure to stress.

A further data set has as its system GRP-94. Briefly: Level of GRP-94 in STZ diabetic rat liver (Western blot). The data set is classed as in vivo.
Where [6] appears, read: treatment 15 min. before 30 min. 43° C. heat stress.
Where [7] appears, read: treatment 100 min. after 30 min. 43° C. heat stress.

Regarding `CCCCCCCNC(=O)NOCC(O)CN1CCCCC1` (stereo not drawn) [Example 55, N-[2-hydroxy-3-(1-piperidinyl)propoxy]-N′-heptyl-urea], the “Level of hsp72 relative to the stress exposed control” value is “+++ (>100%)” in the data set with Hsp72 [1] and “+ +” in the data set on Hsp72 [2].

In the case of `O=C(NOCC(O)CN1CCCCC1)Nc1cccc(Cl)c1` (stereo not drawn) [Example 59, N-(3-chlorophenyl)-N′-[2-hydroxy-3-(1-piperidinyl)propoxy]-urea], the “Level of hsp72 relative to the stress exposed control” value in the data set on Hsp72 [1] is on record as “+++ (>100%)”. Also, in the data set on HSP72 [3] (setting [6]), the “HSP72 level relative to the stress exposed control” value is reported as “+++ (>100%)”.

In the case of `Cl.OC(CON=C(Cl)c1cccs1)CN1CCCCC1` (stereo not drawn) [Example 1, N-[2-hydroxy-3-(1-piperidinyl)propoxyl]-2-thiophenecarboximidoyl chloride monohydrochloride], in the data set on Male Sprague-Dawley rats, the “Survival (%)” value is 100%. In addition, in data set [4], the “regeneration of the cells of aorta” value is given as “facilitated the regeneration of the cells of aorta”.

As for `c1cncc(C2=NOCC(CN3CCCCC3)N2)c1` (stereo not drawn) [Example 64, 5,6-Dihydro-5-(1-piperidinyl)methyl-3-(3-pyridyl)-4H-1,2,4-oxadiazine], the “Survival (%)” value with Male Sprague-Dawley rats amounted to 100%. Moreover, the “Level of hsp72 relative to the stress exposed control” value in the data set on Hsp72 [1] is listed as 0 (0 indicates that the treatment altered by ±20% the stress induced hsp72 level in the cells); in the data set with Hsp72 [2], “+ +”. Further, the “HSP72 level relative to the stress exposed control” value is reported as “+++ (>100%)” in the data set with HSP72 [3] (setting [6]) and 0 (0 indicates that the treatment altered by ±20% the stress induced hsp72 level in the cells) with HSP72 [3] (setting [7]).

`CCCCCCCCCCCCCCCC(=O)OC(CON=C(Cl)c1cccnc1)CN1CCCCC1.Cl.Cl` (stereo not drawn) [Example 23, N-[2-palmitoyloxy-3-(1-piperidinyl)propoxy]-3-pyridinecarboximidoyl chloride dihydrochloride] displayed a melting point of 69 to 73.5 °C. In the data set on Hsp72 [2], the “Level of hsp72 relative to the stress exposed control” value is “+ + +”.

Compound `Cl.OC(CON=C(Cl)c1nccc2ccccc12)CN1CCCCC1` (stereo not drawn) registered a melting point of 168 to 172 °C.

On to `Cl.N=C(NOCC(CN1CCCCC1)OC(=O)c1ccccc1Cl)c1cccnc1` (stereo not drawn), for which the melting point lay within 91 to 94 °C.

`Cl.Cl.N=C(NOCC(O)CN1CCCCC1)c1ccc([N+](=O)[O-])cc1` (stereo not drawn) yielded a melting point of 184 to 189 °C.

Turning to `Cl.OC(CON=C(Cl)c1ccccc1)CN1CCCCC1` (stereo not drawn) [N-[2-hydroxy-3-(1-piperidinyl)-propoxy]-benzimidoyl-chloride monohydrochloride], the “Survival (%)” value in the data set with Male Sprague-Dawley rats worked out at 100%. Moreover, in data set [4], the “regeneration of the cells of aorta” value is “facilitated the regeneration of the cells of aorta”. Moreover, the “increase of the stress induced hsp72 level” value in the data set with hsp72 [5] was “more than 20%”. In the data set with HSP72 [3] (setting [6]), the “HSP72 level relative to the stress exposed control” value is on record as “+ (21-50%)”. In addition, in the data set on Hsp72 [2], the “Level of hsp72 relative to the stress exposed control” value is listed as “+ + +”.

On to `CC(C)(C)NCC(O)CONC(=O)c1cccc(C(F)(F)F)c1` (stereo not drawn) [Example 65], for which the “Survival (%)” value in the data set with Male Sprague-Dawley rats was 78%. The “Level of hsp72 relative to the stress exposed control” value is “+ (21-50%)” with Hsp72 [1] and 0 (0 indicates that the treatment altered by ±20% the stress induced hsp72 level in the cells) in the data set on Hsp72 [2].

On to `Cl.Cl.N=C(NOCCCN1CCCCC1)c1ccccc1`, for which the melting point was in the range of 207 to 209 °C.

The compound `CCN(CC)CC(O)CON=C(Cl)c1cccc(C(F)(F)F)c1.Cl` (stereo not drawn) [Example 12, N-[3-(diethylamino)-2-hydroxypropoxy]-3-trifluoromethyl-benzenecarboximidoyl chloride monohydrochloride] registered a melting point of 121 to 128 °C. In addition, the “Level of hsp72 relative to the stress exposed control” value in the data set on Hsp72 [2] is given as “+ (21-50%)”.

As to `O=C(O)/C=C\C(=O)O.O=C(OC(CON=C(Cl)c1cccnc1)CN1CCCCC1)c1ccccc1` (stereo not drawn) [Example 21, N-[2-benzoyloxy-3-(1-piperidinyl)propoxy]-3-pyridinecarboximidoyl chloride (Z)-2-butenedioate (1:1)], the melting point lay in the range of 134 to 136 °C. Besides, the “Level of hsp72 relative to the stress exposed control” value in the data set on Hsp72 [2] is “+ +”.

For `N=C(NOCC(CN1CCCCC1)OC(=O)c1ccco1)c1cccnc1.O=C(O)/C=C\C(=O)O` (stereo not drawn), the melting point fell in the range of 167 to 171.5 °C.

For “insulin: Insulin (Protophane HM inj.) [reference compound]”, the “levels of GRP-94 compared to the control state” value in the data set on GRP-94 (insulin alone, 1 week and 2-weeks samples) is reported as “almost doubled”. Moreover, the “relative amount of GRP-94” value with GRP-94 (rats diabetic for 4 weeks, insulinized, not treated with the compound) is listed as “recovery of GRP-94 to the control level”.

The compound `COc1ccc(CC(=N)NOCCCN2CCCCC2)cc1OC.Cl.Cl` showed a melting point of 207 to 209 °C.

`Cl.Cl.N=C(NOCC(O)CN1CCCCC1)c1cccs1` (stereo not drawn) displayed a melting point of 157 to 170 °C.

Turning to `Cl.O=[N+]([O-])c1cccc(C(Cl)=NOCCCN2CCCCC2)c1` [Example 79, O-(3-piperidinopropyl)-3-nitro-benzhydroximyl chloride hydrochloride], the “Survival (%)” value in the data set on Male Sprague-Dawley rats is 100%. In addition, in the data set on hsp72 [5], the “increase of the stress induced hsp72 level” value is “more than 50%”. Moreover, the “HSP72 level relative to the stress exposed control” value with HSP72 [3] (setting [6]) was “+++ (>100%)”; in the data set with HSP72 [3] (setting [7]) it was “+ (21-50%)”. Besides, the “Level of hsp72 relative to the stress exposed control” value in the data set with Hsp72 [2] is on record as “+ +”.

With `Cl.N=C(NOCCCN1CCCCC1)c1cccc([N+](=O)[O-])c1`, the melting point fell in the range of 158 to 162 °C.

With `Cl.N=C(NOCCCN1CCCCC1)c1cccc(C(F)(F)F)c1`, the melting point was 116 to 119 °C.

`Cl.OC(CNC1CCCCC1)CON=C(Cl)c1cccc(C(F)(F)F)c1` (stereo not drawn) had a melting point of 147 to 149.5 °C.

(Values after US7745465B2, “Method of enhancing cellular production of molecular chaperone, hydroxylamine derivatives useful for enhancing the chaperone production and the preparation thereof” (CytRx Corporation, priority 1995, dated 2010).)
